Measurements published in patent publication US20120083522A1, “MODULATION OF INFLAMMATORY RESPONSES BY FACTOR XI” (Isis Pharmaceuitcals, inc., priority 2009, published 2012).
In the oligonucleotide strings, read from the 5' end, every base follows the letter of its sugar. An asterisk marks phosphorothioate; unmarked linkages are phosphodiester. Other units and linkages are bracketed, terminal groups are in braces. A string of capitals states the bases alone. e = 2'-O-(2-methoxyethyl) (MOE); [5mC] = 5-methylcytosine; d = 2'-deoxy (DNA)

Experiments:
human Factor XI mRNA [1] = test: Dose-dependent inhibition in HepG2 cells, lipofectin (Example 4); format: cell-based; details: 16 hours
Outline: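 Read-out was percent inhibition of Factor XI mRNA relative to untreated controls, by qRT-PCR (RTS 2966) adjusted for RIBOGREEN-measured total RNA. Cells received antisense oligonucleotide at 9.375 to 75 nM (four levels) via lipofectin. Treatment lasted approximately 16 hours, with plating at 10,000 cells per well.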

human Factor XI mRNA [2] = test: Dose-dependent antisense inhibition in HepG2 cells, lipofectin (Example 2); format: cell-based; details: approximately 16 hours
Description: Cells were plated at a density of 10,000 cells per well and transfected using lipofectin reagent with 9.375 nM, 18.75 nM, 37.5 nM, 75 nM, and 150 nM concentrations of antisense oligonucleotide, as specified in Table 3. After a treatment period of approximately 16 hours, RNA was isolated from the cells and Factor XI mRNA levels were measured by quantitative real-time PCR. Human Factor XI primer probe set RTS 2966 (forward sequence: […], incorporated herein as SEQ ID NO: 3; reverse sequence: […], incorporated herein as SEQ ID NO: 4; probe sequence: TTGTCTACTGAAGCACACCCAAACAGGGAX, wherein X is the fluorophore, incorporated herein as SEQ ID NO: 5) was used to measure mRNA levels. Factor XI mRNA levels were adjusted according to total RNA content, as measured by RIBOGREEN®. Results are presented as percent inhibition of Factor XI, relative to untreated control cells.

human Factor XI mRNA [3] = test: Dose-dependent inhibition in HepG2 cells, electroporation (Example 4); format: cell-based; details: 16 hours
Outline: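 HepG2 cells electroporated with 0.7, 2.2, 6.7 or 20 μM antisense gapmer and harvested after ~16 h. Factor XI mRNA quantified by qRT-PCR (primer probe set RTS 2966), normalised to total RNA (RIBOGREEN). Reported as percent inhibition versus untreated control cells.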

human Factor XI mRNA [4] = test: Antisense inhibition in HepG2 cells by microwalk gapmers, 75 nM, lipofectin (Example 3); format: cell-based; details: HepG2 cells, 75 nM
Outline: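 HepG2 cells (10,000 per well) were transfected with 75 nM gapmer using lipofectin and treated for about 24 h. Factor XI mRNA was quantified by real-time PCR, normalized to RiboGreen total RNA and expressed as percent inhibition versus untreated controls.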

human Factor XI mRNA [5] = test: Antisense inhibition in HepG2 cells by microwalk gapmers, 8,000 nM, electroporation (Example 14); format: cell-based; details: HepG2 cells, 8,000 nM
Outline: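 Percent reduction of Factor XI transcript, relative to untreated controls, by real-time PCR with RIBOGREEN normalisation. Readout taken about 24 h after electroporating HepG2 cells with 8,000 nM oligonucleotide. Gapmers are 5-10-5, 5-8-5 or 6-8-6 MOE wings, phosphorothioate backbone.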

[6] = Tolerability in Sprague-Dawley rats: hematology assays (Example 23); format: in vivo; design: RBC / WBC / Neutrophil / Lymphocyte / Platelets: unit not given here; details: blood

Substance | percent inhibition of Factor XI mRNA, relative to untreated control cells (human Factor XI mRNA [1]; 9.375 nM) | percent inhibition of Factor XI mRNA, relative to untreated control cells (human Factor XI mRNA [1]; 18.75 nM) | percent inhibition of Factor XI mRNA, relative to untreated control cells (human Factor XI mRNA [1]; 37.5 nM) | percent inhibition of Factor XI mRNA, relative to untreated control cells (human Factor XI mRNA [1]; 75 nM) | percent inhibition of Factor XI (human Factor XI mRNA [2]; 9.375 nM) | percent inhibition of Factor XI (human Factor XI mRNA [2]; 18.75 nM) | percent inhibition of Factor XI (human Factor XI mRNA [2]; 37.5 nM) | percent inhibition of Factor XI (human Factor XI mRNA [2]; 75 nM) | percent inhibition of Factor XI (human Factor XI mRNA [2]; 150 nM) | percent inhibition of Factor XI mRNA, relative to untreated control cells (human Factor XI mRNA [3]; 0.7 μM) | percent inhibition of Factor XI mRNA, relative to untreated control cells (human Factor XI mRNA [3]; 2.2 μM) | percent inhibition of Factor XI mRNA, relative to untreated control cells (human Factor XI mRNA [3]; 6.7 μM) | percent inhibition of Factor XI mRNA, relative to untreated control cells (human Factor XI mRNA [3]; 20 μM) | % inhibition of human Factor XI mRNA levels (human Factor XI mRNA [4]; oligonucleotides targeted to nucleobases 738 to 762 of SEQ ID NO: 1) | Percent inhibition of human Factor XI mRNA levels (human Factor XI mRNA [5]) | % inhibition of human Factor XI mRNA levels (human Factor XI mRNA [4]; oligonucleotides targeted to nucleobases 1018 to 1042 of SEQ ID NO: 1) | % inhibition of human Factor XI mRNA levels (human Factor XI mRNA [4]; oligonucleotides targeted to nucleobases 1062 to 1091 of SEQ ID NO: 1) | RBC [6] | WBC [6]
412203 (antisense eA*eA*eT*eG*eT*d[5mC]*dT*dT*dT*dG*dT*dT*dG*d[5mC]*dA*eA*eG*e[5mC]*eG*e[5mC]) [compound 412203] | 33% | 40% | 62% | 74% | 29% | 15% | 61% | 77% | 82% | 11% | 60% | 70% | 91% | – | – | – | – | – | –
412206 (antisense e[5mC]*e[5mC]*eG*eT*eG*d[5mC]*dA*dT*d[5mC]*dT*dT*dT*d[5mC]*dT*dT*eG*eG*e[5mC]*eA*eT) [compound 412206] | 24% | 47% | 69% | 86% | 28% | 44% | 68% | 80% | 89% | 22% | 39% | 81% | 94% | 93% | 91% | – | – | – | –
412212 (antisense e[5mC]*e[5mC]*eG*eG*eG*dA*dT*dG*dA*dT*dG*dA*dG*dT*dG*e[5mC]*eA*eG*eA*eT) [compound 412212] | – | – | – | – | 28% | 45% | 59% | 73% | 88% | – | – | – | – | – | – | 89% | – | – | –
413467 (antisense eG*eG*eT*e[5mC]*e[5mC]*dA*d[5mC]*dA*dT*dA*dA*dA*dT*dG*dT*e[5mC]*eT*eT*eT*eG) [compound 413467] | 35% | 51% | 62% | 69% | 2% | 35% | 49% | 61% | 47% | 5% | 31% | 65% | 89% | – | – | – | – | – | –
413476 (antisense eT*eT*eG*eA*eG*dA*dT*dT*d[5mC]*dT*dT*dT*dG*dG*dG*e[5mC]*e[5mC]*eA*eT*eT) [compound 413476] | 24% | 58% | 62% | 77% | 26% | 44% | 64% | 73% | 82% | 40% | 69% | 88% | 93% | – | – | – | 93% | – | –
ISIS 416848: gapmer of Table 8 (antisense e[5mC]*eA*e[5mC]*eA*eG*dT*dT*dT*d[5mC]*dT*dG*dG*d[5mC]*dA*dG*eG*e[5mC]*e[5mC]*eT*e[5mC]) | – | – | – | – | – | – | – | – | – | – | – | – | – | – | – | – | – | 6.0 | 17
ISIS 416851: gapmer of Table 8 (antisense eG*eT*eG*e[5mC]*eA*d[5mC]*dA*dG*dT*dT*dT*d[5mC]*dT*dG*dG*e[5mC]*eA*eG*eG*e[5mC]) | – | – | – | – | – | – | – | – | – | – | – | – | – | – | – | – | – | 7.4 | 11
ISIS 416852: gapmer of Table 8 (antisense eT*eG*eG*eT*eG*d[5mC]*dA*d[5mC]*dA*dG*dT*dT*dT*d[5mC]*dT*eG*eG*e[5mC]*eA*eG) | – | – | – | – | – | – | – | – | – | – | – | – | – | – | – | – | – | 7.2 | 13
ISIS 416859: gapmer of Table 8 (antisense eG*eA*e[5mC]*eG*eG*d[5mC]*dA*dT*dT*dG*dG*dT*dG*d[5mC]*dA*e[5mC]*eA*eG*eT*eT) | – | – | – | – | – | – | – | – | – | – | – | – | – | – | – | – | – | 7.8 | 16
